In US9221832B2, “Heterocyclic amide derivatives as P2X7 receptor antagonists” (ACTELION PHARMACEUTICALS LTD., priority 2011, dated 2015):
pIC50: −log10 of the molar value.

Each molecule was assayed against human recombinant P2X7 receptor (Homo sapiens (Human), UniProt Q99572) (assay: YO-PRO assay: P2X7 receptor antagonistic activity). Conditions: HEK cells expressing human P2X7.
Format: cell-based

human recombinant P2X7 receptor, sequence (Q99572 whole entry): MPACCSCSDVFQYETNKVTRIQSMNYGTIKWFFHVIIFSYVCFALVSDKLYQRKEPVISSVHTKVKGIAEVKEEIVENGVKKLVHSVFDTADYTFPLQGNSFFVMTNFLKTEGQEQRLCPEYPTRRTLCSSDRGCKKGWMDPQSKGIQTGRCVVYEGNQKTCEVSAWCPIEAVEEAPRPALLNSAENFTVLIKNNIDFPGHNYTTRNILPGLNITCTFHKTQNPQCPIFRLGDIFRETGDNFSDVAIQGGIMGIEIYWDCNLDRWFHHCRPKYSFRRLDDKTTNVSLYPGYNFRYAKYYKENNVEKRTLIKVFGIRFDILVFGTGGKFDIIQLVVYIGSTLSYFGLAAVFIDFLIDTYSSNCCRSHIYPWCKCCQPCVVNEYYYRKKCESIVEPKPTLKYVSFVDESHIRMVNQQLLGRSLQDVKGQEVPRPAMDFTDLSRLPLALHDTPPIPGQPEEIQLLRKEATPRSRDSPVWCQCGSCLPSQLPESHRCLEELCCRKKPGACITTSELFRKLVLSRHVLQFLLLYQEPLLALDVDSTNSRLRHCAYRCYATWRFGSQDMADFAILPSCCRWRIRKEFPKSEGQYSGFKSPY

Going from `O=C(Cc1cccc(OC(F)(F)F)c1Cl)NC1COc2ncccc21` (racemic) [Example 108, rac-2-(2-Chloro-3-trifluoromethoxy-phenyl)-N-(2,3-dihydro-furo[2,3-b]pyridin-3-yl)-acetamide] to `O=C(Cc1cccc(C(F)(F)F)c1Cl)NC1COc2ncccc21` (racemic) [Example 34, rac-2-(2-Chloro-3-trifluoromethyl-phenyl)-N-(2,3-dihydro-furo[2,3-b]pyridin-3-yl)-acetamide], the pIC50 rises from 7.15 to 8.13 (0.98 log units). The second is the more potent here.

Going from `[2H]C([2H])([2H])C(C(=O)NC1COc2ncccc21)c1ccc(Cl)cc1Cl` (stereo not shown) [Example 86, 2-(2,4-Dichloro-phenyl)-2-trideuteromethyl-N-2,3-dihydro-furo[2,3-b]pyridin-3-yl-acetamide] to `CC(C(=O)NC1COc2ncccc21)c1ccc(Cl)cc1Cl` (single isomer, unassigned) [Example 95, 2-(2,4-Dichloro-phenyl)-N-2,3-dihydro-furo[2,3-b]pyridin-3-yl-propionamide], the pIC50 falls from 7.48 to 6.98 (0.50 log units).

First: CCc1cc(Cl)cc(Cl)c1CC(=O)NC1COc2ncccc21 (racemic) [Example 32, rac-2-(2,4-Dichloro-6-ethyl-phenyl)-N-(2,3-dihydro-furo[2,3-b]pyridin-3-yl)-acetamide]
Second: Cc1cc(Cl)cc(Cl)c1CC(=O)NC1COc2ncccc21 (single isomer, unassigned) [Example 7, 2-(2,4-Dichloro-6-methyl-phenyl)-N-(2,3-dihydro-furo[2,3-b]pyridin-3-yl)-acetamide]
The pIC50 of the first is 0.82 log units lower: 7.64 for the first, 8.46 for the second. The second is the more potent here.

Compared with `CC(C(=O)NC1COc2ncccc21)c1ccc(Cl)cc1Cl` (single isomer, unassigned) [Example 93, 2-(2,4-Dichloro-phenyl)-N-2,3-dihydro-furo[2,3-b]pyridin-3-yl-propionamide], `CCC(C(=O)NC1COc2ncccc21)c1ccc(Cl)cc1Cl` (stereo not shown) [Example 84, 2-(2,4-Dichloro-phenyl)-N-2,3-dihydro-furo[2,3-b]pyridin-3-yl-butyramide] is 0.40 log units higher in pIC50: 6.86 for the first, 7.26 for the second. The second is the more potent here.

`COc1cc(C)nc2c1C(NC(=O)Cc1cccc(C(F)(F)F)c1Cl)CO2` (racemic) [Example 135, rac-2-(2-Chloro-3-trifluoromethyl-phenyl)-N-(4-methoxy-6-methyl-2,3-dihydro-furo[2,3-b]pyridin-3-yl)-acetamide] and `CCOc1cc(C)nc2c1C(NC(=O)Cc1cccc(C(F)(F)F)c1Cl)CO2` (racemic) [Example 136, rac-2-(2-Chloro-3-trifluoromethyl-phenyl)-N-(4-ethoxy-6-methyl-2,3-dihydro-furo[2,3-b]pyridin-3-yl)-acetamide] cannot be ordered by pIC50: under 5.32 for the first, under 5.00 for the second.

First: Cc1cc(Cl)cc(Cl)c1CC(=O)NC1COc2nccc(C)c21 (racemic) [Example 138, rac-2-(2,4-Dichloro-6-methyl-phenyl)-N-(4-methyl-2,3-dihydro-furo[2,3-b]pyridin-3-yl)-acetamide]
Second: Cc1cc(Cl)cc(Cl)c1CC(=O)NC1COc2cncc(C)c21 (racemic) [Example 131, rac-2-(2,4-Dichloro-6-methyl-phenyl)-N-(4-methyl-2,3-dihydro-furo[2,3-c]pyridin-3-yl)-acetamide]
The pIC50 of the first is 0.85 log units lower: 7.00 for the first, 7.85 for the second. The second is the more potent here.

`Cc1cc(Cl)cc(Cl)c1CC(=O)NC1COc2nc(Cl)ccc21` (racemic) [Example 144, rac-N-(6-Chloro-2,3-dihydro-furo[2,3-b]pyridin-3-yl)-2-(2,4-dichloro-6-methyl-phenyl)-acetamide] and `Cc1cc(Cl)cc(Cl)c1CC(=O)NC1CCOc2ncccc21` (racemic) [Example 8, rac-2-(2,4-Dichloro-6-methyl-phenyl)-N-(3,4-dihydro-2H-pyrano[2,3-b]pyridin-4-yl)-acetamide] are within 0.2 log units of each other in pIC50: 7.30 for the first, 7.37 for the second.

Going from `O=C(Cc1ccc(Cl)cc1Cl)NC1COc2cnc(Cl)cc21` (racemic) [Example 116, rac-N-(5-Chloro-2,3-dihydro-furo[2,3-c]pyridin-3-yl)-2-(2,4-dichloro-phenyl)-acetamide] to `O=C(Cc1ccc(Cl)cc1Cl)NC1COc2c1ccnc2C1CC1` (racemic) [Example 104, rac-N-(7-Cyclopropyl-2,3-dihydro-furo[2,3-c]pyridin-3-yl)-2-(2,4-dichloro-phenyl)-acetamide], the pIC50 rises from 6.46 to 7.15 (0.69 log units).

First: N#Cc1ccccc1CC(=O)NC1COc2ncccc21 (racemic) [Example 10, rac-2-(2-Cyano-phenyl)-N-(2,3-dihydro-furo[2,3-b]pyridin-3-yl)-acetamide]
Second: COc1ccccc1CC(=O)NC1COc2ncccc21 (racemic) [Example 12, rac-N-(2,3-Dihydro-furo[2,3-b]pyridin-3-yl)-2-(2-methoxy-phenyl)-acetamide]
The pIC50 of the first is higher: 5.53 for the first, under 5.22 for the second.

Compared with `O=C(NC1COc2ncccc21)C(CN1CCCC1)c1ccc(Cl)cc1Cl` (stereo not shown) [Example 81, 2-(2,4-Dichloro-phenyl)-N-2,3-dihydro-furo[2,3-b]pyridin-3-yl-3-pyrrolidin-1-yl-propionamide], `CC(C(=O)NC1COc2ncccc21)c1ccc(Cl)cc1Cl` (single isomer, unassigned) [Example 94, 2-(2,4-Dichloro-phenyl)-N-2,3-dihydro-furo[2,3-b]pyridin-3-yl-propionamide] is 2.25 log units higher in pIC50: 5.71 for the first, 7.96 for the second.

Compared with `O=C(Cc1cccc(C(F)(F)F)c1Cl)NC1COc2c[n+]([O-])ccc21` (racemic) [Example 148, rac-2-(2-Chloro-3-trifluoromethyl-phenyl)-N-(6-oxy-2,3-dihydro-furo[2,3-c]pyridin-3-yl)-acetamide], `O=C(Cc1cccc(C(F)(F)F)c1Cl)NC1COc2ncccc21` (single isomer, unassigned) [Example 73, 2-(2-Chloro-3-trifluoromethyl-phenyl)-N-(2,3-dihydro-furo[2,3-b]pyridin-3-yl)-acetamide] is 1.22 log units higher in pIC50: 6.78 for the first, 8.00 for the second. The second is the more potent here.

First: O=C(Cc1c(F)cc(Cl)cc1Cl)NC1CCOc2ncccc21 (racemic) [Example 70, rac-2-(2,4-Dichloro-6-fluoro-phenyl)-N-(3,4-dihydro-2H-pyrano[2,3-b]pyridin-4-yl)-acetamide]
Second: O=C(Cc1c(F)ccc(F)c1Cl)NC1COc2ncccc21 (racemic) [Example 78, rac-2-(2-Chloro-3,6-difluoro-phenyl)-N-(2,3-dihydro-furo[2,3-b]pyridin-3-yl)-acetamide]
The pIC50 of the first is 0.23 log units higher: 6.41 for the first, 6.18 for the second. The first is the more potent here.

Compared with `CC(=O)c1cccc(CC(=O)NC2COc3ncccc32)c1Cl` (racemic) [Example 111, rac-2-(3-Acetyl-2-chloro-phenyl)-N-(2,3-dihydro-furo[2,3-b]pyridin-3-yl)-acetamide], `N#Cc1c(F)ccc(CC(=O)NC2COc3ncccc32)c1Cl` (racemic) [Example 107, rac-2-(2-Chloro-3-cyano-4-fluoro-phenyl)-N-(2,3-dihydro-furo[2,3-b]pyridin-3-yl)-acetamide] is 1.13 log units higher in pIC50: 6.38 for the first, 7.51 for the second. The second is the more potent here.

First: CC(C(=O)NC1CCOc2ncccc21)c1ccc(Cl)cc1 (stereo not shown) [Example 64, 2-(4-Chloro-phenyl)-N-(3,4-dihydro-2H-pyrano[2,3-b]pyridin-4-yl)-propionamide]
Second: Cc1cncc2c1C(NC(=O)Cc1cccc(C(F)(F)F)c1Cl)CO2 (racemic) [Example 128, rac-2-(2-Chloro-3-trifluoromethyl-phenyl)-N-(4-methyl-2,3-dihydro-furo[2,3-c]pyridin-3-yl)-acetamide]
The pIC50 of the first is 2.43 log units lower: 5.82 for the first, 8.25 for the second. The second is the more potent here.
